In the RepoRT retention time repository:

Experiment: HILIC, HILICON iHILIC-(P) Classic, HILIC, PEEK, 50 × 2.1 mm, 5 µm, 30 °C, 0.12 mL/min, estimated dead time 0.92 min; A: water + 20 mM ammonium carbonate; B: acetonitrile; gradient (min/%B) 0/80 1/80 21/20 21.5/20 26.5/20 27.5/80 35/80
Details: stereoisomer not certain

| SMILES | LC retention time [min] |
| --- | --- |
| Nc1nc2c(ncn2C2OC(COP(=O)(O)OP(=O)(O)OP(=O)(O)O)C(O)C2O)c(=O)[nH]1 (configuration not stated) [GTP] | 16.9 |
| Nc1ccn(C2OC(CO)C(O)C2O)c(=O)n1 (configuration not stated) [Cytidine] | 6.28 |
| O=C(O)CC(C(=O)O)C(O)C(=O)O (configuration not stated) [Isocitric acid] | 15.8 |
| O=P(O)(O)OCC(O)CO (configuration not stated) [Glycerol-3-phosphate] | 10.9 |
| Nc1ccn(C2OC(COP(=O)(O)O)C(O)C2O)c(=O)n1 (configuration not stated) [CMP] | 10.8 |
| CC(C)CC(N)C(=O)O (configuration not stated) [Leucine] | 5.63 |
| O=C(O)CC(O)(CC(=O)O)C(=O)O [Citric acid] | 16.5 |
| CCC(C)C(N)C(=O)O (configuration not stated) [Isoleucine] | 6.75 |
| Nc1nc2c(ncn2C2OC(COP(=O)(O)O)C(O)C2O)c(=O)[nH]1 (configuration not stated) [GMP] | 13.9 |
| NCCCCC(N)C(=O)O (configuration not stated) [Lysine] | 18.4 |
| Nc1ncnc2c1ncn2C1OC(COP(=O)(O)OP(=O)(O)OP(=O)(O)O)C(O)C1O (configuration not stated) [ATP] | 13.9 |
| Nc1nc2c(ncn2C2OC(CO)C(O)C2O)c(=O)[nH]1 (configuration not stated) [Guanosine] | 7.27 |
| NC(CSSCC(N)C(=O)O)C(=O)O (configuration not stated) [Cystine] | 11.8 |
| NC(CCC(=O)NC(CSSCC(NC(=O)CCC(N)C(=O)O)C(=O)NCC(=O)O)C(=O)NCC(=O)O)C(=O)O (configuration not stated) [GSSG] | 15.6 |
| Nc1ncnc2nc[nH]c12 [Adenine] | 3.84 |
| NC(=O)CC(N)C(=O)O (configuration not stated) [Asparagine] | 11.1 |
| O=C1OC(C(O)CO)C(O)=C1O (configuration not stated) [Ascorbic Acid] | 9.51 |
| Nc1nc2c(ncn2C2OC(COP(=O)(O)OP(=O)(O)O)C(O)C2O)c(=O)[nH]1 (configuration not stated) [GDP] | 14.8 |
| Nc1nc2ncc(CNc3ccc(C(=O)NC(CCC(=O)O)C(=O)O)cc3)nc2c(=O)[nH]1 (configuration not stated) [Folic Acid] | 14.4 |
| Nc1ncnc2c1ncn2C1OC(COP(=O)(O)OP(=O)(O)O)C(O)C1O (configuration not stated) [ADP] | 12.5 |
| CC(=O)SCCNC(=O)CCNC(=O)C(O)C(C)(C)COP(=O)(O)OP(=O)(O)OCC1OC(n2cnc3c(N)ncnc32)C(O)C1OP(=O)(O)O (configuration not stated) [Acetyl-CoA] | 8.59 |
| Nc1ncnc2c1ncn2C1OC(CO)C(O)C1O (configuration not stated) [Adenosine] | 3.76 |
| NC(CCC(=O)O)C(=O)O (configuration not stated) [Glutamic acid] | 10.2 |
| NC(=O)CCC(N)C(=O)O (configuration not stated) [Glutamine] | 8.86 |
| Nc1ncnc2c1ncn2C1OC(COP(=O)(O)O)C(O)C1O (configuration not stated) [AMP] | 8.62 |
| O=C(O)CCCCC1SCC2NC(=O)NC21 (configuration not stated) [Biotin] | 3.76 |
| NC(CCC(=O)NC(CS)C(=O)NCC(=O)O)C(=O)O (configuration not stated) [GSH] | 8.95 |
| CC(O)C(=O)O (configuration not stated) [Lactic Acid] | 3.22 |
| Nc1ccn(C2OC(COP(=O)(O)OP(=O)(O)O)C(O)C2O)c(=O)n1 (configuration not stated) [CDP] | 13.2 |

Further lines, results first:

| LC retention time [min] | SMILES |
| --- | --- |
| 13.6 | O=C(O)C(CO)OP(=O)(O)O (configuration not stated) [Phosphoglyceric acid A] |
| 17.7 | NCCCC(N)C(=O)O (configuration not stated) [Ornithine] |
| 9.43 | NC(=O)c1ccc[n+](C2OC(COP(=O)(O)OP(=O)(O)OCC3OC(n4cnc5c(N)ncnc54)C(O)C3O)C(O)C2O)c1 (configuration not stated) [NAD] |
| 9.56 | NC(CO)C(=O)O (configuration not stated) [Serine] |
| 6.31 | NC(Cc1c[nH]c2ccccc12)C(=O)O (configuration not stated) [Tryptophan] |
| 5.37 | NC(Cc1ccccc1)C(=O)O (configuration not stated) [Phenylalanine] |
| 2.1 | O=C(O)c1cccnc1 [Nicotinic acid] |
| 9.63 | O=C(O)CC(=O)O [Malonic Acid] |
| 9.99 | NC(=O)c1ccc[n+](C2OC(COP(=O)([O-])O)C(O)C2O)c1 (configuration not stated) [NMN] |
| 16.3 | NC(=O)C1=CN(C2OC(COP(=O)(O)OP(=O)(O)OCC3OC(n4cnc5c(N)ncnc54)C(OP(=O)(O)O)C3O)C(O)C2O)C=CC1 (configuration not stated) [NADPH] |
| 7.48 | O=C(O)C1CCCN1 (configuration not stated) [Proline] |
| 11.5 | O=C(CO)COP(=O)(O)O [Triose phosphate] |
| 12.3 | O=c1ccn(C2OC(COP(=O)(O)OP(=O)(O)O)C(O)C2O)c(=O)[nH]1 (configuration not stated) [UDP] |
| 12.7 | Cc1ncc(C[n+]2csc(CCO)c2C)c(N)n1 [Thiamine] |
| 12.1 | O=C(O)CCC(=O)O [Succinic Acid] |
| 13 | O=C(O)CC(O)C(=O)O (configuration not stated) [Malic Acid] |
| 9.95 | NC(=O)C1=CN(C2OC(COP(=O)(O)OP(=O)(O)OCC3OC(n4cnc5c(N)ncnc54)C(O)C3O)C(O)C2O)C=CC1 (configuration not stated) [NADH] |
| 6.97 | CC(C)C(N)C(=O)O (configuration not stated) [Valine] |
| 9.59 | O=c1ccn(C2OC(COP(=O)(O)O)C(O)C2O)c(=O)[nH]1 (configuration not stated) [UMP] |
| 14.1 | O=c1ccn(C2OC(COP(=O)(O)OP(=O)(O)OP(=O)(O)O)C(O)C2O)c(=O)[nH]1 (configuration not stated) [UTP] |
| 9.49 | CC(=O)NC(CC(=O)O)C(=O)O (configuration not stated) [N-Acetylaspartic acid] |
| 13.6 | C=C(OP(=O)(O)O)C(=O)O [PEP] |
| 8.15 | NC(Cc1ccc(O)cc1)C(=O)O (configuration not stated) [Tyrosine] |
| 8.47 | CC(O)C(N)C(=O)O (configuration not stated) [Threonine] |
| 6.99 | CSCCC(N)C(=O)O (configuration not stated) [Methionine] |
| 6.75 | O=C(O)C1(O)CC(O)C(O)C(O)C1 (configuration not stated) [Quinic Acid] |
| 13.4 | NC(=O)c1ccc[n+](C2OC(COP(=O)(O)OP(=O)(O)OCC3OC(n4cnc5c(N)ncnc54)C(OP(=O)(O)O)C3O)C(O)C2O)c1 (configuration not stated) [NADP] |
| 11.9 | CC(=O)NC1C(OP(=O)(O)OP(=O)(O)OCC2OC(n3ccc(=O)[nH]c3=O)C(O)C2O)OC(CO)C(O)C1O (configuration not stated) [UDP-GlcNAc] |
